Where two headings read alike, the source gives them in different places. Values belong to the compound of their own block, whether it stands above or below them.
Legend:
[1] = Pharmacokinetics assays (plasma and brain); format: in vivo; set-up: AUC(0-t) / AUC(0-inf): concentration or dose not given beside the values; conditions: for AUC(0-t): read-out: Plasma AUC last; for Cmax: species, dose and route not given; for Plasma/Brain Ratio: in vivo
[2] = test system: eIF4E Ser209 phosphorylation in Hela cells; experiment: MNK cell-based assay (AlphaScreen SureFire, eIF4E Ser209 phosphorylation); conditions: Homo sapiens, read-out: IC50 Hela
Outline: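 Hela cells (30,000/well) exposed to test compound in serum-free medium for 2 h at 37 °C, then lysed. Phospho-Ser209 eIF4E quantified by AlphaScreen SureFire; IC50 obtained by non-linear regression of signal versus log compound concentration.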

[3] = brain, read-out: Brain T1/2 (converted)
[4] = plasma, read-out: Plasma T1/2 (converted)
[5] = eIF4E Ser209 phosphorylation, Hela cells, 2 hours

Compound: CN1CCN(C(=O)c2ccc(-c3cn4c(-c5ccc(C#N)cc5)cnc4cn3)cc2)CC1 [Entry 1]
Brain AUC inf ([1]; brain): 625 ng·h/g
Brain AUC last ([1]; brain): 520 ng·h/g
Brain Cmax ([1]; brain): 290 ng/g
half-life [1, 3]: 1.39 h
Tmax ([1]; brain, read-out: Brain Tmax): 0.5 h
AUC(0-inf) ([1]; plasma): 7440 ng·h/mL
AUC(0-t) ([1]; plasma): 7420 ng·h/mL
half-life [1, 4]: 3.02 h
Tmax ([1]; plasma, read-out: Plasma Tmax): 0.25 h
Cmax ([1]; plasma): 2670 ng/mL

Compound: CN(C)C1CCN(C(=O)c2ccc(-c3cn4c(-c5ccc(C#N)cc5)cnc4cn3)cc2)CC1 [Entry 2]
Brain AUC inf ([1]; brain): 99 ng·h/g
Brain AUC last ([1]; brain): 71 ng·h/g
Brain Cmax ([1]; brain): 14.6 ng/g
half-life [1, 3]: 4.11 h
Tmax ([1]; brain, read-out: Brain Tmax): 0.25 h
Plasma/Brain Ratio [1]: 0.13
AUC(0-inf) ([1]; plasma): 536 ng·h/mL
AUC(0-t) ([1]; plasma): 527 ng·h/mL
half-life [1, 4]: 2.06 h
Tmax ([1]; plasma, read-out: Plasma Tmax): 0.25 h
Cmax ([1]; plasma): 227 ng/mL

Compound: N#Cc1ccc(-c2cnc3ccc(-c4ccc(C(=O)N5CCNCC5)cc4)nn23)cc1 [Entry 6]
Brain AUC last ([1]; brain): 17 ng·h/g
Brain Cmax ([1]; brain): 10 ng/g
Tmax ([1]; brain, read-out: Brain Tmax): 0.25 h
Plasma/Brain Ratio [1]: 0.05
AUC(0-inf) ([1]; plasma): 359 ng·h/mL
AUC(0-t) ([1]; plasma): 350 ng·h/mL
half-life [1, 4]: 1.59 h
Tmax ([1]; plasma, read-out: Plasma Tmax): 0.25 h
Cmax ([1]; plasma): 275 ng/mL

Compound: CC1(N)CCN(C(=O)c2ccc(-c3ccc4ncc(-c5ccc(Cl)cc5)n4c3)cc2)CC1 [Example 173, (4-amino-4-methylpiperidin-1-yl)(4-(3-(4-chlorophenyl)imidazo [1,2-a]pyridin-6-yl)phenyl)methanone]
IC50 ([2]; HeLa, 2 h): < 1000 nM

Compound: NC1CCN(C(=O)c2ccc(-c3ccc4ncc(-c5ccc(Cl)cc5)n4c3)cc2)CC1 [Example 174, (4-aminopiperidin-1-yl)(4-(3-(4-chlorophenyl)imidazo[1,2-a]pyridin-6-yl)phenyl)methanone]
IC50 [2, 5]: < 1000 nM

Compound: CN1CCN(C2CCN(C(=O)c3ccc(-c4ccn5ncc(-c6ccc(C#N)cc6)c5n4)cc3)CC2)CC1 [Example 179, 4-(5-(4-(4-(4-methylpiperazin-1-yl)piperidine-1-carbonyl)phenyl)pyrazolo[1,5-a]pyrimidin-3-yl)benzonitrile]
IC50 [2, 5]: < 1000 nM

Compound: N#Cc1ccc(-c2cnn3ccc(-c4ccc(C(=O)N5CCCOCC5)cc4)nc23)cc1 [Example 181, 4-(5-(4-(1,4-oxazepane-4-carbonyl)phenyl)pyrazolo[1,5-a]pyrimidin-3-yl)benzonitrile]
IC50 [2, 5]: < 1000 nM

Compound: N#Cc1ccc(-c2cnn3ccc(-c4ccc(C(=O)N5CCNCC5)cc4)nc23)cc1 [Example 183, 4-(5-(4-(piperazine-1-carbonyl)phenyl)pyrazolo[1,5-a]pyrimidin-3-yl)benzonitrile]
IC50 [2, 5]: < 1000 nM

Compound: CC(=O)N1CCN(C(=O)c2ccc(-c3ccn4ncc(-c5ccc(C#N)cc5)c4n3)cc2)CC1 [Example 184]
IC50 [2, 5]: < 1000 nM

Compound: CC(=O)NC1CCN(C(=O)c2ccc(-c3ccn4ncc(-c5ccc(C#N)cc5)c4n3)cc2)CC1 [Example 186, N-(1-(4-(3-(4-cyanophenyl)pyrazolo[1,5-a]pyrimidin-5-yl)benzoyl)piperidin-4-yl)acetamide]
IC50 [2, 5]: < 1000 nM

Compound: N#Cc1ccc(-n2cnc3ccc(-c4ccc(C(=O)N5CCOCC5)cc4)cc32)cc1 [Example 190, 4-(6-(4-(morpholine-4-carbonyl)phenyl)-1H-benzo[d]imidazol-1-yl)benzonitrile]
IC50 ([2]; HeLa, 2 h): < 1000 nM

Further lines, results first:

Brain AUC inf ([1]; brain): 77 ng·h/g
Brain AUC last ([1]; brain): 59 ng·h/g
Brain Cmax ([1]; brain): 77.78 ng/g
half-life [1, 3]: 0.96 h
Tmax ([1]; brain, read-out: Brain Tmax): 0.25 h
Plasma/Brain Ratio [1]: 0.01
AUC(0-inf) ([1]; plasma): 4190 ng·h/mL
AUC(0-t) ([1]; plasma): 4120 ng·h/mL
half-life [1, 4]: 2.51 h
Tmax ([1]; plasma, read-out: Plasma Tmax): 0.25 h
Cmax ([1]; plasma): 3160 ng/mL
Compound: CN1CCN(C(=O)c2ccc(-c3ccc4ncc(-c5ccc(C#N)cc5)n4c3)cc2)CC1=O [Entry 3]

Brain AUC last ([1]; brain): 184 ng·h/g
Brain Cmax ([1]; brain): 20 ng/g
Tmax ([1]; brain, read-out: Brain Tmax): 8 h
Plasma/Brain Ratio [1]: 0.3
AUC(0-inf) ([1]; plasma): 632 ng·h/mL
AUC(0-t) ([1]; plasma): 614 ng·h/mL
half-life [1, 4]: 2.38 h
Tmax ([1]; plasma, read-out: Plasma Tmax): 0.25 h
Cmax ([1]; plasma): 223 ng/mL
Compound: CN1CCN(C2CCN(C(=O)c3ccc(-c4ccc5ncc(-c6ccc(C#N)cc6)n5c4)cc3)CC2)CC1 [Entry 4]

Brain AUC inf ([1]; brain): 8951 ng·h/g
Brain AUC last ([1]; brain): 8811 ng·h/g
Brain Cmax ([1]; brain): 1724 ng/g
half-life [1, 3]: 4.28 h
AUC(0-inf) ([1]; plasma): 76500 ng·h/mL
AUC(0-t) ([1]; plasma): 74700 ng·h/mL
half-life [1, 4]: 4.33 h
Cmax ([1]; plasma): 13400 ng/mL
Compound: N#Cc1ccc(-c2cnc3ccc(-c4ccc(C(=O)N5CCOCC5)cc4)nn23)cc1 [Entry 5]

Brain AUC inf ([1]; brain): 2516 ng·h/g
Brain AUC last ([1]; brain): 2474 ng·h/g
Brain Cmax ([1]; brain): 678 ng/g
half-life [1, 3]: 2.05 h
Tmax ([1]; brain, read-out: Brain Tmax): 1 h
AUC(0-inf) ([1]; plasma): 26000 ng·h/mL
AUC(0-t) ([1]; plasma): 26000 ng·h/mL
half-life [1, 4]: 2.94 h
Tmax ([1]; plasma, read-out: Plasma Tmax): 0.25 h
Cmax ([1]; plasma): 7360 ng/mL
Compound: N#Cc1ccc(-c2cnc3ccc(-c4ccc(C(=O)N5CCOCC5)cc4)cn23)cc1 [Entry 7]

IC50 [2, 5]: < 1000 nM
Compound: CN1CCN(C2(C)CCN(C(=O)c3ccc(-c4ccc5ncc(-c6ccc(C#N)cc6)n5c4)cc3)CC2)CC1 [Example 164, 4-(6-(4-(4-methyl-4-(4-methylpiperazin-1-yl)piperidine-1-carbonyl)phenyl)imidazo [1,2-a]pyridin-3-yl)benzonitrile]

IC50 [2, 5]: < 1000 nM
Compound: N#Cc1ccc(-c2cnc3ccc(-c4ccc(C(=O)N5CCNCC5)cc4)cn23)cc1 [Example 165, 4-(6-(4-(piperazine-1-carbonyl)phenyl)imidazo [1,2-a]pyridin-3-yl)benzonitrile]

IC50 [2, 5]: < 1000 nM
Compound: CC(=O)Nc1cc(-c2ccc3ncc(-c4ccc(C#N)cc4)n3c2)ccc1C(=O)N1CCOCC1 [Example 166, N-(5-(3-(4-cyanophenyl)imidazo[1,2-a]pyridin-6-yl)-2-(morpholine-4-carbonyl)phenyl)acetamide]

IC50 [2, 5]: < 1000 nM
Compound: N#Cc1ccc(-c2cnc3ccc(-c4ccc(C(=O)N5CCOCC5)c(O)c4)cn23)cc1 [Example 167, 4-(6-(3-hydroxy-4-(morpholine-4-carbonyl)phenyl)imidazo[1,2-a]pyridin-3-yl)benzonitrile]

IC50 [2, 5]: < 1000 nM
Compound: CNC1CCN(C(=O)c2ccc(-c3ccc4ncc(-c5ccc(C#N)cc5)n4c3)cc2NC(C)=O)CC1 [Example 169, N-(5-(3-(4-cyanophenyl)imidazo[1,2-a]pyridin-6-yl)-2-(4-(methylamino)piperidine-1-carbonyl)phenyl)acetamide]

IC50 [2, 5]: < 1000 nM
Compound: CC(=O)Nc1cc(-c2ccc3ncc(-c4ccc(C#N)cc4)n3c2)ccc1C(=O)N1CCNCC1 [Example 170, N-(5-(3-(4-cyanophenyl)imidazo[1,2-a]pyridin-6-yl)-2-(piperazine-1-carbonyl)phenyl)acetamide]

IC50 [2, 5]: < 1000 nM
Compound: COC1(C)CCN(C(=O)c2ccc(-c3ccc4ncc(-c5ccc(C#N)cc5)n4c3)cc2)CC1 [Example 172, 4-(6-(4-(4-methoxy-4-methylpiperidine-1-carbonyl)phenyl)imidazo[1,2-a]pyridin-3-yl)benzonitrile]

IC50 [2, 5]: < 1000 nM
Compound: N#Cc1ccc(-c2cnn3ccc(-c4ccc(C(=O)N5CCOCC5)cc4)nc23)cc1 [Example 185, 4-(5-(4-(morpholine-4-carbonyl)phenyl)pyrazolo [1,5-a]pyrimidin-3-yl)benzonitrile]

IC50 [2, 5]: < 1000 nM
Compound: N#Cc1ccc(-c2cnn3ccc(-c4ccc(C(=O)N5CCOCC5)c(O)c4)nc23)cc1 [Example 187, 4-(5-(3-hydroxy-4-(morpholine-4-carbonyl)phenyl)pyrazolo [1,5-a]pyrimidin-3-yl)benzonitrile]
